How the values were obtained:
Experiment in all cases: combination Emax (second highest fraction inhibited in the dose matrix, 72 h); higher = more inhibition; extreme values may be limits of the assay
[1] = system: K-562 (Chronic Myelogenous Leukemia)
Summary of the method: (§1)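 Cell lines grown in DMEM/F12 or RPMI with 10% FBS were plated in 1536-well plates and held 24 hours at 37°C, 5% CO2 before 72 hours of exposure to two-drug dose matrices, with DMSO typically at 0.2%. CellTiter-Glo 2.0 luminescence gave viability, which was converted to inhibition. Vehicle wells were set to 0 and blank wells to 1. Combination Emax is the second-highest inhibition in the matrix, and Bliss excess is the observed combination effect minus the expected EA + EB − EA·EB, where EA and EB are the single-agent effects.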

ES1 (Ewing's Sarcoma) = system: ES1 (Ewing's Sarcoma)
Summary of the method: as §1

[2] = system: EVSA-T (Breast Carcinoma)
Summary of the method: as §1

TC-71 (Ewing's Sarcoma) = system: TC-71 (Ewing's Sarcoma)
Summary of the method: as §1

[3] = system: MOLT-16 (T-Lymphoblastic Leukemia)
Summary of the method: as §1

[4] = system: DiFi (Colorectal Carcinoma)
Summary of the method: as §1

[5] = system: CAMA-1 (Breast Carcinoma)
Summary of the method: as §1

[6] = system: TOV-112D (Ovarian Carcinoma)
Summary of the method: as §1

[7] = system: MKN28 (Gastric Carcinoma)
Summary of the method: as §1

[8] = system: SW837 (Colorectal Carcinoma)
Summary of the method: as §1

[9] = system: P12-ICHIKAWA (T-Lymphoblastic Leukemia)
Summary of the method: as §1

[10] = system: TE-6 (Esophageal Squamous Cell Carcinoma)
Summary of the method: as §1

WM-115 (Melanoma) = system: WM-115 (Melanoma)
Summary of the method: as §1

[11] = system: NCI-H1792 (Lung Adenocarcinoma)
Summary of the method: as §1

[12] = system: DND-41 (T-Lymphoblastic Leukemia)
Summary of the method: as §1

[13] = system: MFM-223 (Breast Carcinoma)
Summary of the method: as §1

U251 (Low Grade Glioma) = system: U251 (Low Grade Glioma)
Summary of the method: as §1

[14] = system: COLO-678 (Colorectal Carcinoma)
Summary of the method: as §1

WIL2-NS (Non-Cancerous) = system: WIL2-NS (Non-Cancerous)
Summary of the method: as §1

Row | SMILES | combination Emax [1] | combination Emax (ES1 (Ewing's Sarcoma)) | combination Emax [2] | combination Emax (TC-71 (Ewing's Sarcoma)) | combination Emax [3] | combination Emax [4] | combination Emax [5] | combination Emax [6] | combination Emax [7] | combination Emax [8] | combination Emax [9] | combination Emax [10] | combination Emax (WM-115 (Melanoma)) | combination Emax [11] | combination Emax [12] | combination Emax [13] | combination Emax (U251 (Low Grade Glioma)) | combination Emax [14] | combination Emax (WIL2-NS (Non-Cancerous))
1 | CC(=O)c1c(C)c2cnc(Nc3ccc(N4CCNCC4)cn3)nc2n(C2CCCC2)c1=O [Palbociclib] + Cc1c2c(nn1C)CSCc1cc(n(C)n1)CSc1cc(c3ccccc3c1)OCCCc1c(C(=O)O)n(C)c3c-2c(Cl)ccc13 [AZD5991] (first compound max 10 µM, 7x7, partner max 1 µM) | 0.132 | 0.917 | 0.967 | 0.586 | 1 | 0.548 | 0.408 | 0.776 | 0.133 | 0.161 | 0.83 | 0.425 | 0.293 | 0.571 | 0.51 | 0.388 | 0.297 | 0.351 | 0.737
2 | CC(=O)c1c(C)c2cnc(Nc3ccc(N4CCNCC4)cn3)nc2n(C2CCCC2)c1=O [Palbociclib] + CC1(C)CCC(CN2CCN(c3ccc(C(=O)NS(=O)(=O)c4ccc(NCC5CCOCC5)c([N+](=O)[O-])c4)c(Oc4cnc5[nH]ccc5c4)c3)CC2)=C(c2ccc(Cl)cc2)C1 [Venetoclax] (first compound max 10 µM, 7x7, partner max 1 µM) | 0.0413 | 0.56 | 0.209 | 0.272 | 0.985 | 0.47 | 0.142 | 0.443 | 0.0507 | 0.0079 | 0.671 | 0.264 | 0.0976 | 0.465 | 0.45 | 0.346 | 0.153 | 0.222 | 0.727
3 | Cn1cnc2c(F)c(Nc3ccc(Br)cc3Cl)c(C(=O)NOCCO)cc21 [Selumetinib] + CCN(CCO)CCCOc1ccc2c(Nc3cc(CC(=O)Nc4cccc(F)c4)[nH]n3)ncnc2c1 [AZD2811] (first compound max 10 µM, 7x7, partner max 1 µM) | 0.32 | 0.532 | 0.283 | 0.838 | 1 | 0.813 | 0.22 | 0.349 | 0.191 | 0.554 | 1 | 0.353 | 0.434 | 0.423 | 0.199 | 0.17 | 0.268 | 0.51 | 0.259
4 | COc1nnc2ccc(N3CCC(c4ccc(OCCN5CCN(C)C(=O)[C@H]5C)cc4)CC3)nn12 [AZD5153] + Cn1cnc2c(F)c(Nc3ccc(Br)cc3Cl)c(C(=O)NOCCO)cc21 [Selumetinib] (first compound max 1 µM, 7x7, partner max 10 µM) | 0.469 | 0.458 | 0.942 | 0.762 | 0.949 | 0.962 | 0.506 | 0.684 | 0.416 | 0.753 | 0.99 | 0.711 | 0.832 | 0.78 | 0.893 | 0.507 | 0.592 | 0.615 | 0.881
5 | COc1nnc2ccc(N3CCC(c4ccc(OCCN5CCN(C)C(=O)[C@H]5C)cc4)CC3)nn12 [AZD5153] + CCN(CCO)CCCOc1ccc2c(Nc3cc(CC(=O)Nc4cccc(F)c4)[nH]n3)ncnc2c1 [AZD2811] (first compound max 1 µM, 7x7, partner max 1 µM) | 0.517 | 0.612 | 0.938 | 0.884 | 1 | 0.667 | 0.497 | 0.718 | 0.43 | 0.57 | 1 | 0.632 | 0.37 | 0.668 | 0.667 | 0.415 | 0.661 | 0.506 | 0.811
6 | COc1nnc2ccc(N3CCC(c4ccc(OCCN5CCN(C)C(=O)[C@H]5C)cc4)CC3)nn12 [AZD5153] + C[C@@H]1COCCN1C2=NC(=NC(=C2)C3(CC3)[S@](=N)(=O)C)C4=C5C=CNC5=NC=C4 [AZD6738] (first compound max 1 µM, 7x7, partner max 10 µM) | 0.821 | 0.918 | 0.977 | 0.997 | 1 | 0.844 | 0.661 | 0.849 | 0.51 | 0.756 | 1 | 0.79 | 0.481 | 0.805 | 0.979 | 0.734 | 0.836 | 0.484 | 0.935
7 | CS(=O)(=O)CCNCc1ccc(-c2ccc3ncnc(Nc4ccc(OCc5cccc(F)c5)c(Cl)c4)c3c2)o1 [Lapatinib] + C[C@@H](Oc1cc(-c2cnn(C3CCNCC3)c2)cnc1N)c1c(Cl)ccc(F)c1Cl [Crizotinib] (first compound max 10 µM, 7x7, partner max 10 µM) | 0.962 | 0.965 | 0.985 | 0.758 | 0.992 | 1 | 0.321 | 0.791 | 0.779 | 0.772 | 0.975 | 0.835 | 0.877 | 0.924 | 0.946 | 0.662 | 0.785 | 0.62 | 0.607

— the supplement of paper PMC11061612
